# Values quoted from earlier work in patent US8645075B2, “Method for predicting organ toxicity and a system thereof” (Strand Life Sciences PVT Ltd., priority 2008, dated 2014).
# Read-outs that look alike come from different tables or passages of the source.
# How the values were obtained:
# [1] = test system: FoF1 ATPase; details: experimental value used for model validation
# [2] = target: T1, CPT1 (Homo sapiens, UniProt P50416)
# T1 sequence (P50416 1-773): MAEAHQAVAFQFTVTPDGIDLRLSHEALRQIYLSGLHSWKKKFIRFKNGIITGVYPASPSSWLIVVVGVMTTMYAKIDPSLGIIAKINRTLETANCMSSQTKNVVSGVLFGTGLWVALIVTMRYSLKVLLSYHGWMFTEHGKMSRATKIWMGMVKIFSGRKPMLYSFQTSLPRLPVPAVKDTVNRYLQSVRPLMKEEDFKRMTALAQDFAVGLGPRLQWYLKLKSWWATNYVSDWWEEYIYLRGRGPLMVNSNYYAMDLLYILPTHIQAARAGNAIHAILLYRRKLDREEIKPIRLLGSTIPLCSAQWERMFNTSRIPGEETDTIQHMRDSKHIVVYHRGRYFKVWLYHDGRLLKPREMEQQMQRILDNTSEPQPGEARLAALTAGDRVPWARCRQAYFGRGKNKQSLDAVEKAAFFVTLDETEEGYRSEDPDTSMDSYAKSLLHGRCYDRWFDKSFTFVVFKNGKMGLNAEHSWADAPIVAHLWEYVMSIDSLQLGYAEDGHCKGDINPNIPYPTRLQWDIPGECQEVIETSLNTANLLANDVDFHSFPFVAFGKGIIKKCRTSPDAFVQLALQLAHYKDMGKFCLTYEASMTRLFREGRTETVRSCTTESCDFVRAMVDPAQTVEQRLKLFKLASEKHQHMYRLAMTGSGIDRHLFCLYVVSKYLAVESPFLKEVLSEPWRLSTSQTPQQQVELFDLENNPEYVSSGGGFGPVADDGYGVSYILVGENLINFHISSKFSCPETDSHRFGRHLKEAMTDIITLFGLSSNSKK
smiles,measurement,setting,value
C=C(C)[C@]12C[C@@H](C)[C@@]34O[C@](c5ccccc5)(O[C@@H]1[C@@H]3[C@@H]1O[C@]1(CO)[C@@H](O)[C@]1(O)C(=O)C(C)=C[C@H]14)O2 [Daphnetoxin],"EC value (Energy Charge), Experiment",[1],0.52
C1CCC(C(CC2CCCCN2)C2CCCCC2)CC1 (stereo not drawn) [Perhexilline],"Triglyceride accumulation, Experiment",[2],98%
CCCCc1oc2ccccc2c1C(=O)c1cc(I)c(OCCN(CC)CC)c(I)c1 [Amiodarone],"Triglyceride accumulation, Experiment",[2]; experimental value used for model validation,150%
